Converted amounts (≈) assume the structure as drawn.
Assays:
[1] = target: DNA gyrase subunit B (Mycobacterium smegmatis, UniProt P0C559); assay: Inhibition of Mycobacterium smegmatis GyrB ATPase activity expressed in Escherichia coli BL21 (DE3) pLysS cells after 100 mins by inorganic phosphate release detection based malachite green reagent assay; set-up: species or system Mycolicibacterium smegmatis
[2] = target: DNA gyrase subunit A/DNA gyrase subunit B (Mycobacterium tuberculosis (strain ATCC 25618 / H37Rv), UniProt P9WG45+P9WG47); assay: Inhibition of Mycobacterium tuberculosis GyrA/GyrB using relaxed pBR322 substrate incubated for 30 mins by ethidium bromide staining and electrophoresis based DNA supercoiling assay
Chain of DNA gyrase subunit A/DNA gyrase subunit B (P9WG45 whole entry): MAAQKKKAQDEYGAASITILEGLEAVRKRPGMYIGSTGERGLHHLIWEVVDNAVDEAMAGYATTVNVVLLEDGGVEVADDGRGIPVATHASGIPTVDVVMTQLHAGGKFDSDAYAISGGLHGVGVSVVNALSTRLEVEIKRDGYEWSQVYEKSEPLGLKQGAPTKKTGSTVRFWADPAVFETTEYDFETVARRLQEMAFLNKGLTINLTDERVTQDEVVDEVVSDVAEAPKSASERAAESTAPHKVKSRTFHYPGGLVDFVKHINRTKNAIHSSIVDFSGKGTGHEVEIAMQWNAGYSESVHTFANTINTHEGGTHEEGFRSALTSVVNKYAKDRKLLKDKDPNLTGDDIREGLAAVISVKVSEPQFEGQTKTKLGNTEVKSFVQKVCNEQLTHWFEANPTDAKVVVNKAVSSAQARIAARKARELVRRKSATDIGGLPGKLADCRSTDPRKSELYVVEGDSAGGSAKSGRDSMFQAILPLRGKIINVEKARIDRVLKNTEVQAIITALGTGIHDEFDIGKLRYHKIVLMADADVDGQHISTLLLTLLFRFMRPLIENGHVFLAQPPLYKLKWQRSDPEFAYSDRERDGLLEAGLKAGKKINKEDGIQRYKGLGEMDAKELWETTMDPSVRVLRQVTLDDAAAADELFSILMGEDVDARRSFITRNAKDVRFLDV
Chain of DNA gyrase subunit A/DNA gyrase subunit B (P9WG47 whole entry): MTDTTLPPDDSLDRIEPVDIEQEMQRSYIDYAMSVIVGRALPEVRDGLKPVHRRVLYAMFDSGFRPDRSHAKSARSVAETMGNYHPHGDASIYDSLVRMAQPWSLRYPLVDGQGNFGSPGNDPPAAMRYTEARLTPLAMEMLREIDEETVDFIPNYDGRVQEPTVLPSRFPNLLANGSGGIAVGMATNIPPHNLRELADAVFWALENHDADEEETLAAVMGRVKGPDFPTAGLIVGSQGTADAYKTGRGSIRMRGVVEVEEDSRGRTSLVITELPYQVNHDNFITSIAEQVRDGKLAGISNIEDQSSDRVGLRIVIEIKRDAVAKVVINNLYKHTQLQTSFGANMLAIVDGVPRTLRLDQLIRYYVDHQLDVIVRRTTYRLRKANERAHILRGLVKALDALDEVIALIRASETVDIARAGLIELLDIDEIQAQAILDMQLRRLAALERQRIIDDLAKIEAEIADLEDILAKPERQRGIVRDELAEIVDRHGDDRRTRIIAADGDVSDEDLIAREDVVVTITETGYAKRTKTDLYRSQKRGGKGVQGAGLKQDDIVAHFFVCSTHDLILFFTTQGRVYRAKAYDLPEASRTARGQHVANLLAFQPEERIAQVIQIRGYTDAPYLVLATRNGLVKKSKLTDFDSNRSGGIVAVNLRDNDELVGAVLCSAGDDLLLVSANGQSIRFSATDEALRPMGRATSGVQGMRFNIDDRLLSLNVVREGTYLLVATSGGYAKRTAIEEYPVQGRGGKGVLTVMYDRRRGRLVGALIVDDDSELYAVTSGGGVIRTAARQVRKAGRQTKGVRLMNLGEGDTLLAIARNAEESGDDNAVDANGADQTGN

[3] = system: Mycobacterium tuberculosis; assay: Antimycobacterial activity against Mycobacterium tuberculosis H37Rv ATCC 27294 incubated for 7 days by microplate alamar blue assay method; format: functional; settings: H37Rv ATCC 27294, 168 h
[4] = Cytotoxicity against mouse RAW264.7 cells assessed as inhibition of cell growth at 50 uM after 48 hrs by MTT assay; format: cell-based; settings: read-out: GI

Chain of DNA gyrase subunit B (P0C559 whole entry): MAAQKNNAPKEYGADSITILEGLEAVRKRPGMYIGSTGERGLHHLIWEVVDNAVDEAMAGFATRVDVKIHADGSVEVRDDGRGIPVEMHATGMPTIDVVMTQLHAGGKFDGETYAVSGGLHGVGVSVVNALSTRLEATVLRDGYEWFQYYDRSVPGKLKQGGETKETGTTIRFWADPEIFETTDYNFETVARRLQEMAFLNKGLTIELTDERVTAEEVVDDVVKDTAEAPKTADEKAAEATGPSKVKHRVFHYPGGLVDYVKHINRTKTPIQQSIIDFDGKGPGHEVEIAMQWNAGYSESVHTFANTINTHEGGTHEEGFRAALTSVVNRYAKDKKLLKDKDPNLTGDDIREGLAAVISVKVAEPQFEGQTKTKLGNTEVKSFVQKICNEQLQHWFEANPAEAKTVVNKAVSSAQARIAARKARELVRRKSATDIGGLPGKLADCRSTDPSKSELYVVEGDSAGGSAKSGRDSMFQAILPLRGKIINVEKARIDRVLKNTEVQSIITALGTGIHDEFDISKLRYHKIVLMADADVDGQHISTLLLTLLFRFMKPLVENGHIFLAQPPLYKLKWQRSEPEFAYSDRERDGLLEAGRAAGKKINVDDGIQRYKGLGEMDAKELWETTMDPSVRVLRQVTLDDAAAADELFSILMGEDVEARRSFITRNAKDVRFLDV

Compound	IC50 [1] [µM]	IC50 [2] [µM]	MIC [3] [µM]	inhibition at 48 h, 50 µM [4] [%]
COc1ccc2nc(C)cc(N3CCC(NC(=S)Nc4ccc([N+](=O)[O-])cc4)CC3)c2c1	2.5	0.88	1.72 (≈ 0.777 µg/mL)	24.9
Cc1cc(N2CCC(NC(=S)Nc3ccc(F)cc3)CC2)c2cc(F)ccc2n1	45.9	23.5	63.3 (≈ 26.1 µg/mL)	33.9
Cc1cc(N2CCC(NC(=S)Nc3ccc(Cl)cc3)CC2)c2cc(F)ccc2n1	41.1	21.5	31.7 (≈ 13.6 µg/mL)	32.3
COc1ccc(NC(=S)NC2CCN(c3cc(C)nc4ccccc34)CC2)cc1	19.4	13.5	30.2 (≈ 12.3 µg/mL)	21.9
COc1ccc(NC(=O)NC2CCN(c3cc(C)nc4ccc(OC)cc34)CC2)cc1	9.25	5.86	12.6 (≈ 5.29 µg/mL)	19.6
COc1ccc(NC(=O)NC2CCN(c3cc(C)nc4ccc(C(F)(F)F)cc34)CC2)cc1	41.2	19.8	54.3 (≈ 24.9 µg/mL)	29
Cc1cc(N2CCC(NC(=S)Nc3ccc([N+](=O)[O-])cc3)CC2)c2cc(C(F)(F)F)ccc2n1	41.8	7.54	51.1 (≈ 25 µg/mL)	19.8
COc1ccc2nc(C)cc(N3CCC(NC(=O)Nc4ccc(F)cc4)CC3)c2c1	18.5	14.8	25.7 (≈ 10.5 µg/mL)	17.3
COc1ccc(NC(=S)NC2CCN(c3cc(C)nc4ccc(OC)cc34)CC2)cc1	10.1	6.17	15.8 (≈ 6.92 µg/mL)	31.8
Cc1cc(N2CCC(NC(=O)Nc3ccccc3)CC2)c2cc(C(F)(F)F)ccc2n1	14.9	8.3	29.4 (≈ 12.6 µg/mL)	20.1
Cc1ccc(NC(=S)NC2CCN(c3cc(C)nc4ccc(F)cc34)CC2)cc1	59.3	25.4	67.9 (≈ 27.8 µg/mL)	23.9
Cc1cc(N2CCC(NC(=O)Nc3ccc([N+](=O)[O-])cc3)CC2)c2cc(C(F)(F)F)ccc2n1	47.6	22.3	52.2 (≈ 24.7 µg/mL)	48.2
COc1ccc2nc(C)cc(N3CCC(NC(=O)Nc4ccc(C)cc4)CC3)c2c1	11.5	8.63	15.4 (≈ 6.25 µg/mL)	28.2
Cc1cc(N2CCC(NC(=O)Nc3ccc(F)cc3)CC2)c2cc(C(F)(F)F)ccc2n1	19.8	11.8	24.9 (≈ 11.1 µg/mL)	39.8
Cc1ccc(NC(=O)NC2CCN(c3cc(C)nc4ccccc34)CC2)cc1	20.5	14.8	24.1 (≈ 9.04 µg/mL)	51.4
COc1ccc(NC(=O)NC2CCN(c3cc(C)nc4ccc(F)cc34)CC2)cc1	10.1	7.62	7.65 (≈ 3.12 µg/mL)	49.7
COc1ccc2nc(C)cc(N3CCC(NC(=O)Nc4ccc([N+](=O)[O-])cc4)CC3)c2c1	6.99	5.33	14.7 (≈ 6.4 µg/mL)	35
Cc1cc(N2CCC(NC(=O)Nc3ccc(Cl)cc3)CC2)c2ccccc2n1	12.9	8.2	7.91 (≈ 3.12 µg/mL)	40.1
COc1ccc(NC(=O)NC2CCN(c3cc(C)nc4ccccc34)CC2)cc1	22	18.5	32 (≈ 12.5 µg/mL)	49.5
Cc1cc(N2CCC(NC(=O)Nc3ccc(F)cc3)CC2)c2cc(F)ccc2n1	1.78	0.78	3.82 (≈ 1.51 µg/mL)	25.4
CO[C@H]1/C=C/O[C@@]2(C)Oc3c(C)c(O)c4c(O)c(c(/C=N/N5CCN(C)CC5)c(O)c4c3C2=O)NC(=O)/C(C)=C\C=C\[C@H](C)[C@H](O)[C@@H](C)[C@@H](O)[C@@H](C)[C@H](OC(C)=O)[C@@H]1C [RIFAMPIN]	–	–	0.23 (≈ 0.189 µg/mL)	–

Compound	IC50 [1] [µM]	IC50 [2] [µM]	MIC [3] [µM]	inhibition at 48 h, 50 µM [4] [%]
COc1ccc2nc(C)cc(N3CCC(NC(=S)Nc4ccccc4)CC3)c2c1	2.14	0.91	3.81 (≈ 1.55 µg/mL)	41.9
Cc1ccc(NC(=O)NC2CCN(c3cc(C)nc4ccc(F)cc34)CC2)cc1	15	8.83	16 (≈ 6.27 µg/mL)	39.7
Cc1cc(N2CCC(NC(=S)Nc3ccccc3)CC2)c2cc(C(F)(F)F)ccc2n1	39	29.4	35.8 (≈ 15.9 µg/mL)	23.3
Cc1cc(N2CCC(NC(=S)Nc3ccc(Cl)cc3)CC2)c2ccccc2n1	12.3	8.12	15.2 (≈ 6.25 µg/mL)	20.8
Cc1cc(N2CCC(NC(=S)Nc3ccc([N+](=O)[O-])cc3)CC2)c2ccccc2n1	3.77	1.21	7.65 (≈ 3.22 µg/mL)	31.8
Cc1cc(N2CCC(NC(=O)Nc3ccccc3)CC2)c2cc(F)ccc2n1	20.5	9.84	33 (≈ 12.5 µg/mL)	48.9
Cc1cc(N2CCC(NC(=S)Nc3ccc([N+](=O)[O-])cc3)CC2)c2cc(F)ccc2n1	56.1	25.5	63.3 (≈ 27.8 µg/mL)	40.7
Cc1cc(N2CCC(NC(=S)Nc3ccccc3)CC2)c2cc(F)ccc2n1	68.2	39.4	63.3 (≈ 25 µg/mL)	37.4
Cc1ccc(NC(=O)NC2CCN(c3cc(C)nc4ccc(C(F)(F)F)cc34)CC2)cc1	16.6	9.2	28.1 (≈ 12.4 µg/mL)	16.2
COc1ccc(NC(=S)NC2CCN(c3cc(C)nc4ccc(F)cc34)CC2)cc1	39.5	17.8	31.7 (≈ 13.4 µg/mL)	21.3
Cc1cc(N2CCC(NC(=O)Nc3ccc(Cl)cc3)CC2)c2cc(F)ccc2n1	49	29.6	50.8 (≈ 21 µg/mL)	49.7
COc1c(N2C[C@@H]3CCCN[C@@H]3C2)c(F)cc2c(=O)c(C(=O)O)cn(C3CC3)c12 [MOXIFLOXACIN]	> 50	–	1.26 (≈ 0.506 µg/mL)	–
Cc1cc(N2CCC(NC(=O)Nc3ccc([N+](=O)[O-])cc3)CC2)c2ccccc2n1	17	10.6	15.4 (≈ 6.25 µg/mL)	30.4
Cc1cc(N2CCC(NC(=S)Nc3ccc(Cl)cc3)CC2)c2cc(C(F)(F)F)ccc2n1	16.5	4.12	30.7 (≈ 14.7 µg/mL)	11.8
Cc1cc(N2CCC(NC(=O)Nc3ccccc3)CC2)c2ccccc2n1	17.3	9.79	25.8 (≈ 9.31 µg/mL)	33.9
CO[C@@H]1[C@@H](OC(N)=O)[C@@H](O)[C@H](Oc2ccc3c(O)c(NC(=O)c4ccc(O)c(CC=C(C)C)c4)c(=O)oc3c2C)OC1(C)C [NOVOBIOCIN]	–	–	> 200	–
COc1ccc2nc(C)cc(N3CCC(NC(=S)Nc4ccc(F)cc4)CC3)c2c1	8.7	2.31	14.7 (≈ 6.25 µg/mL)	29.3
Cc1cc(N2CCC(NC(=S)Nc3ccccc3)CC2)c2ccccc2n1	12.7	9.4	16.6 (≈ 6.25 µg/mL)	11.8
Cc1ccc(NC(=S)NC2CCN(c3cc(C)nc4ccc(C(F)(F)F)cc34)CC2)cc1	24.7	5.1	31.7 (≈ 14.5 µg/mL)	19.3
Cc1cc(N2CCC(NC(=O)Nc3ccc(Cl)cc3)CC2)c2cc(C(F)(F)F)ccc2n1	34	17.3	48.5 (≈ 22.5 µg/mL)	29.1
NNC(=O)c1ccncc1 [ISONIAZID]	–	–	0.66 (≈ 0.0905 µg/mL)	–
